The source of these data is US4153709A, “N-Heterocyclic ureas as immune regulants” (Eli Lilly and Company, priority 1977, dated 1979).

Structures are written as SMILES. Read-outs that look alike come from different tables or passages of the source.

In one data set the test system is neoplasms in NZBxW mice. The conditions noted are these: Walker and Bole, J. Lab. Clin. Med. 82,619 (1972); control 5 percent; cited from earlier work.
For data set [1], the system named is antibody to sheep red blood cells. The experiment in a line: 75 percent reduction of control antibody titer in mice by subcutaneous, percutaneous and oral routes (Table 16). The conditions noted are these: Mus musculus, Erythrocyte. It counts as in vivo, male Swiss mice. On the procedure:
Subcutaneous, percutaneous, and oral activity have been achieved as indicated in Table 16 which follows employing representative compounds from the above entitled application. […] Except as indicated, the tests were performed using groups of five 20-gram male Swiss mice injected with 5×10^7 sheep red blood cells intravenously for each drug level. Ten (daily) administrations of drug were made commencing three days prior to red blood cell injection. On the day following the final treatment (7 days after red blood cell injection) the animals were bled by cardiac puncture, the sera from each five-mouse-group were pooled, and antibody titers of these serum pools and corresponding serum pools from control (untreated) mouse groups were determined. The results are expressed as the minimum drug dose effecting 75 percent reduction of control antibody titer: […]

Data set [2] relates to graft versus host reaction. The experiment in a line: Graft versus host (GVH) reaction, spleen weight (Tables 20, 21). It counts as in vivo, mice (C57BL donors, F1 hybrid C57BL×C3H recipients). On the procedure: In this determination, […] (C57BL) mouse spleen cells are injected into mice of an F1 hybrid strain (C57BL×C3H). […] The injected cells, however, mount a reaction to the recipient's tissues due to the foreign C3H-derived antigens. As a consequence, the recipient's spleen becomes enlarged. Immunosuppressive therapy prevents or reduces this enlargement. Thus, spleen weights provide a measure of the GVH reaction and its reduction under immunosuppression.
Treated and GVH control animals receive an intraperitoneal injection of 1.2×10^9 splenic lymphocytes from the C57 donors. Spleens are weighed ten days later. Spleen weights derived from groups of recipient mice receiving genetically homologous, i.e., syngeneic cells (C57BL×C3H) provide normal control values for calculating percent inhibition in drug-treated groups. For example, mice given 13 daily topical doses of 1-(4,5,6,7-tetra-hydro-2-benzothiazolyl)-3-phenyl urea show a 62% reduction in GVH reaction relative to controls, as set forth in Table 20.
Using this procedure, three compounds from the above useful in the processes of this invention have been compared with several reference immunosuppressive drugs. Treatment levels defining the 50 percent inhibitory dose have been determined.

The subject of data set [3] is Salmonella typhimurium G46 missense histidine-auxotroph. The experiment in a line: Host mediated assay (in vivo mutagenicity), G46 indicator (Table 22). Further details: species or system Salmonella typhimurium in Cox white Swiss male mice. On the procedure: Cox white Swiss male mice 25-30 grams were used in all in vivo tests.
A. Drug Administration: Appropriate solvents were used where applicable with a solvent control run within each test. […] The organisms were grown to stationary phase, then diluted with normal saline to give an inoculum near 1×10^8 organisms per milliliter. The abdominal area of the drug-treated mouse was swabbed with alcohol and two milliliters of bacterial culture were injected into the abdominal cavity of the mouse. The mice were returned to their cages for 3-4 hours.
C. Autopsy and Recovery: The mice were sacrificed individually by cervical dislocation prior to each autopsy. The abdominal areas were soaked with ethanol. The peritoneum was bared and 2.5 ml. of sterile normal saline was injected into the peritoneal cavity using a sterile (3-ml. plastic syringe with a 20-gauge needle. After insertion, the needle is turned bevel up and the saline was expelled into the cavity; while the needle remains through the peritoneum, keeping the point of the needle in sight pressed against the peritoneal wall, the abdomen of the mouse was massaged to mix contents. The saline wash was removed from the abdominal cavity back into the syringe. The needle was removed and the contents expelled into an appropriately marked tube and iced 4° C.
D. Dilution and Plating: One-ml. samples were plated at 10° dilution on all mice to determine revertants (histidine+).
A one-milliliter sample from the untreated dilutions from control animals is plated 10^-6, 10^-7, and 10^-8 dilutions with excess histidine to determine mutable population (histidine-).

Data set [4] shares this test system. It counts as cell-based. On the procedure: Compounds found active in the qualitative test were further tested. The culture to be tested was grown to stationary phase in tryptone yeast broth and then diluted to a viable count of about 9×10^7 organisms per milliliter.
Eleven log4 dilutions of the test compound were made covering a range that would allow survival of nonlethal mutants. The dilutions were made in Spizizen's minimal media with minute amounts of histidine and biotin (20 nM) each in […]. tubes. Each tube contained 3 ml. after dilution. Replicate 1 ml. aliquots of test organism were added to each tube including six "0" drug tubes. Final drug concentrations were calculated from 4-ml. volumes (3 ml. drug dilution +1 ml. test organism). Two of the "0" drug tubes were immediately plated at 10° dilution in minimal medium and 10^-5, 10^-6, 10^-7 dilutions in medium containing excess histidine (40 mcg/ml.) Spontaneous revertants (histidine+) were detected in the 10° dilution. Mutable population (histidine-) were detected in the 10^-5, 10^-6, and 10^-7 dilutions. All remaining dilutions were incubated in a Dubonoff shaker at 37° C. for 4 hr., then iced at 4° C. […] A 1-ml. aliquot from each "0" control was also plated at 10^-6, 10^-7, and 10^-8 dilutions in media with excess histidine to detect growth of mutable population (histidine-); normally there are 3-4 generations of the mutable population. All minimal media plates were counted. A dose response increase in revertants above spontaneous background indicated mutagenic potential of a test compound. […] Lethality has occurred to both populations, histidine+ and histidine-, at the same compound levels in all drugs tested to date.
The results are recorded as mutants test/mutants control.

Data set [5] has the same test system. The experiment in a line: Qualitative in vitro prescreen for mutagenicity, G46 indicator (Table 22). To be noted: 200 mcg disc.
Description: Filter paper discs 1/4" were impregnated with 200 mcg of test compound using either H2 O or DMSO as solvent. The discs were placed on Petri dishes containing minimal media which had been individually seeded with one of the twelve tester strains. […] A uniform circle of colonies appear around the pad when a compound with mutagenic potential is present. The test compound forms a concentration gradient as it diffuses from the pad. Occasionally, there is a clear ring in close proximity to the pad surrounded by a uniform circle of revertant colonies which indicates a lethal mutation at high concentration of compound and nonlethal mutation at lesser concentration. A single pad thus allows one to test a compound over a wide range of concentrations. Histidine+ colonies were developed enough to read after 48 hr. incubation at 37° C. The plates were read as follows:
A. background zone, if present, is measured in millimeters, if not, a negative is recorded (-).
B. mutant zone is measured in millimiters, if present; if not, a negative (-) is recorded.
C. the mutation frequency can be estimated from density of mutant colonies as follows:
1. Low frequency--few colonies
2. Moderate frequency--many colonies
3. High frequency--dense ring of colonies
4. No colonies recorded (-)
Data set [6] has as its system antibody response to sheep blood cells (hemaglutination titer). The experiment in a line: Immune regulating test: suppression of hemaglutination titer by 4-fold factor in mice (i.p. drug, i.p. sheep blood cells), Tables 1-15. It counts as in vivo, Swiss mice. The conditions noted are these: Mus musculus, ip, 192 h, × 3, intraperitoneal, minimum dose to suppress the hemaglutination titer by a 4-fold factor, 8 days after antigen, read-out: Immuno-Suppressant ED4-Fold. On the procedure: The ability of compounds according to the above formulas to alter immune mechanisms in a host animal was measured by their activity according to the following test. Groups of five 20-gram Swiss mice were injected intraperitoneally with standardized suspensions of an antigen--in this instance sheep blook cells. […] Eight days after injection of the antigen, the mice were bled and the sera from each group pooled. Antibody determinations were made on the serum pools by a hemaglutination pattern procedure and comparisons made between treated and control animals. In Tables 1-18 which follow, the activity of the compounds listed therein is given in terms of the minimum dose of drug necessary to suppress the hemaglutination titer by a 4-fold factor in the treated mice as compared with control titers.

Data set [7] concerns antibody to the sheep red blood cell antigen. The experiment in a line: Antibody response to sheep red blood cells in marmosets, injected drug. Type of data set: in vivo. To be noted: 25 mg/kg daily for three days. On the procedure: In order to determine if the compounds disclosed herein had immunoalterant activity in a primate species, representative numbers of the series were tested in marmosets. 1-(2-Fluorophenyl)-3-(6-methoxy-2-benzothiazolyl) urea was injected in 25 mg/kg doses daily for three days into five marmosets. A similar group of five untreated marmosets was reserved as a control series. On the day following the third treatment, all animals received intraperitoneal injections of antigen (1×10^9 sheep red blood cells). On the 7th day following antigen injection, serum levels of antibody to the sheep red blood cell antigen were determined.

[8] abbreviates: oral, × 10 daily doses commencing 3 days before antigen i.v., read-out: Lowest Dose Producing 75% Immunosuppression, Oral.
Setting [9] is: percutaneous, × 10 daily doses commencing 3 days before antigen i.v., read-out: Lowest Dose Producing 75% Immunosuppression, Percutaneous.
Setting [10] is: 300 mg/kg, s.c., MT/MC of 3 would indicate mutagenic potential.
The mark [11] stands for this setting: sc, subcutaneous, × 10 daily doses commencing 3 days before antigen i.v., read-out: Lowest Dose Producing 75% Immunosuppression, Subcutaneous.

Take `O=P1(N(CCCl)CCCl)NCCCO1` (centres unmarked) [Cyclophosphamide, reference compound]: the incidence of neoplasms with neoplasms in NZBxW mice is on record as 100%. The minimal effective dose in data set [1] (setting [8]) and in data set [1] (setting [9]) was 25 mg/kg in each case. For the same compound, the “Percent GVH Inhibition” value in data set [2] (6.25 mg/kg × 13, s.c.) is 32%; in data set [2] (12.5 mg/kg × 13, s.c.), 53%.
As to `CN(C)N=O` [DMNA, N-nitrosodimethylamine], the “IN VIVO mutants test/mutants control” value in data set [3] (3 mg/kg, s.c.) is 1.16; in data set [3] (30 mg/kg, s.c.), 43.6; in data set [3] (setting [10]) it was 620. The “requirement of host mediation for mutagenic potential” value in data set [3] (mouse, in vivo) is on record as “requiring host-mediation to demonstrate mutagenic potential”. Moreover, in data set [4] (750 mcg/ml), the “IN VITRO QUANTITATIVE MT/MC” value was “.33”. Also, in data set [5], the “IN VITRO QUALITATIVE ACTIVITY” value was “N”.
For the compound `C1CN1c1nc(N2CC2)nc(N2CC2)n1` [TEM, trimethylenemelamine], the “IN VIVO mutants test/mutants control” value amounted to 13 in data set [3] (3 mg/kg, s.c.); 27 in data set [3] (30 mg/kg, s.c.); 13 in data set [3] (setting [10]); 3.2 in data set [3] (.3 mg/kg, s.c.). For the same compound, the “IN VITRO QUANTITATIVE MT/MC” value in data set [4] (180 mcg/ml) is given as 24. Moreover, the “IN VITRO QUALITATIVE FREQ (mutation frequency)” value in data set [5] is reported as “MEDIUM”.
Regarding `CN(N=O)C(=O)N[C@H]1C(O)O[C@H](CO)[C@@H](O)[C@@H]1O` (some centres unmarked) [STREPTOZOTOCIN], the “IN VIVO mutants test/mutants control” value in data set [3] (3 mg/kg, s.c.) came to 2782; in data set [3] (30 mg/kg, s.c.), 444; in data set [3] (.03 mg/kg, s.c.) it was 3.35; in data set [3] (.3 mg/kg, s.c.), 278. The “IN VITRO QUANTITATIVE MT/MC” value in data set [4] (.11 mcg/ml) was determined as 6750. Moreover, in data set [5], the “IN VITRO QUALITATIVE FREQ (mutation frequency)” value was “HIGH”.
As for `CC(=O)Oc1ccccc1C(=O)O` [ASA, Acetylsalicylic Acid], the “IN VIVO mutants test/mutants control” value was found to be 1.11 in data set [3] (30 mg/kg, oral gavage) and 1.06 in data set [3] (300 mg/kg, oral gavage). Also, the “IN VITRO QUANTITATIVE MT/MC” value in data set [4] (750 mcg/ml) is “.58”. Besides, the “IN VITRO QUALITATIVE ACTIVITY” value in data set [5] is given as “N”.
Consider `O=C(Nc1ccccc1)Nc1nc2ccccc2[nH]1` [Table 1: phenyl, H, 1-(2-benzimidazolyl)-3-phenyl urea], for which the minimal effective dose in data set [1] (sc, subcutaneous, *seven doses, once daily, commencing the day of antigen administration, read-out: Lowest Dose Producing 75% Immunosuppression, Subcutaneous) amounted to 31.5 mg/kg; in data set [6], 12.5 mg/kg.
With `O=C(Nc1ccccc1)Nc1nc2c(s1)CCCC2` [Table 13: phenyl, 1-(4,5,6,7-tetrahydro-2-benzothiazolyl)-3-phenyl urea], the minimal effective dose in data set [1] (setting [11]) is 12.5 mg/kg; in data set [1] (setting [8]), 25 to 100 mg/kg; in data set [1] (setting [9]) it was 3.1 mg/kg; in data set [6] it was 25 mg/kg. For the same compound, the “Percent GVH Inhibition” value in data set [2] (50 mg/kg × 13, oral) is on record as 41%; in data set [2] (100 mg/kg × 13, oral), 54%. For the same compound, in data set [2] (100 mg/kg × 13, daily topical), the “Percent Inhibition of GVH reaction” value was 62%. In data set [2] (100 mg/kg × 13, daily topical, GVH control 11.03 ± 0.35, syn. control 5.20 ± 0.37), the “Mg Spleen/g Body Weight ± S.E.” value was 7.42 ± 0.63 Mg Spleen/g Body Weight.
For `O=C(Nc1ccccc1)Nc1nc2ccccc2s1` [Table 11: phenyl, H, S, 1-(2-benzothiazolyl)-3-phenyl urea], the minimal effective dose in data set [1] (setting [11]) is 1 mg/kg; in data set [1] (setting [8]), 25 mg/kg; in data set [1] (setting [9]), 6.2 to 12.5 mg/kg; in data set [6] it was 6.2 mg/kg. The “Percent GVH Inhibition” value in data set [2] (0.8 mg/kg × 13, s.c.) is on record as 29%; in data set [2] (1.6 mg/kg × 13, oral) it was 46%; in data set [2] (1.6 mg/kg × 13, s.c.), 54%; in data set [2] (3.12 mg/kg × 13, oral), 64%.
With `C[C@]12CCC(=O)C=C1CC[C@@H]1[C@@H]2C(=O)C[C@@]2(C)[C@H]1CC[C@]2(O)C(=O)CO` [Cortisone, reference compound], the minimal effective dose in data set [1] (setting [11]) was 25 mg/kg; in data set [1] (oral, × 10, **antigen given intraperitoneally, read-out: Lowest Dose Producing 75% Immunosuppression, Oral), 200 to 400 mg/kg; in data set [1] (setting [9]), 50 mg/kg. The “Percent GVH Inhibition” value in data set [2] (1.56 mg/kg × 13, s.c.) came to 48%; in data set [2] (3.12 mg/kg × 13, s.c.), 82%.
In the case of `COc1ccc2nc(NC(=O)Nc3ccccc3F)sc2c1` [Table 11: o-fluorophenyl, 6-CH3 O, S, 1-(2-Fluorophenyl)-3-(6-methoxy-2-benzothiazolyl) urea], the “treated animals showing detectable antibody” value in data set [7] (injected, five marmosets, 7th day following antigen) is given as “only one of the treated animals”. Also, in data set [7] (controls titers from 1-10 to 1-80), the “antibody titer of the responding treated animal” value is 1-10. Further, the minimal effective dose in data set [6] is under 3.1 mg/kg.
